In patent publication US20240391940A1, “FUSED RING-CONTAINING COMPOUND, APPLICATION THEREOF, AND COMPOSITION CONTAINING SAME” (GenEros Biopharma Ltd., priority 2020, published 2024):
“And” between values parts separate entries of the source, which are not always exact repeats. Equal values may be shown once.

Legend:
Format in all cases: in vivo, C57BL/6 Apoe KO mice
[1] = system: Apoe KO mouse atherosclerosis model; assay: Atherosclerosis model (Apoe KO mice, high-fat diet): blood lipid tests TCHO, TG, LDL-C, HDL-C; parameters: blood lipids (CHO) in Apo E−/− mice / blood lipids (TG) in Apo E−/− mice / blood lipids (HDL-C) in Apo E−/− mice / blood lipids (LDL-C) in Apo E−/− mice: unit not given here; conditions: for blood lipids (CHO) in Apo E−/− mice / blood lipids (HDL-C) in Apo E−/− mice / blood lipids (LDL-C) in Apo E−/− mice / blood lipids (TG) in Apo E−/− mice: HFD + ATV-5 mpk, 5 mg/kg
Protocol: (§1) Method: Apoe KO mice were tested for basal blood lipid levels and divided into a normal control group and a high-fat group. After 8 weeks of housing, the mice from the high-fat group were divided into 4 groups of about 8: a normal diet group (Chow), a high-fat diet model group (HFD), an Atorvastatin positive group (HFD+atorvastatin 5 mpk, QD), and a GEN1-284s group (284-60 mpk, QD). Oral administration was performed for 8 consecutive weeks, and the effect of the compound on the following indicators in Apoe KO mice was observed: 4 blood lipid tests (TC, TG, HDL-C and LDL-C), aortic plaque En-face staining, and pathological oil red staining of the cardiac outflow tract.
(§2) Mice from the groups except for the normal diet control group (Chow) were fed with high-fat feed every day for […]. From week 9, each group was orally administered solvent or a corresponding test compound, and body weight data were recorded every day for 8 consecutive weeks. After the first 8 weeks' high-fat diet, blood samples were taken and centrifuged to separate serum, and the serum was tested for blood lipid levels (TCHO, TG, LDL-C and HDL-C). The mice were randomly grouped according to the TCHO results and body weight. During the subsequent 8 weeks of administration, blood lipid tests (TCHO, TG, LDL-C and HDL-C) were run once every 4 weeks.
Mice were fasted overnight, and blood (150 μL) was collected via mandibular blood sampling or eye ball removal (for endpoint only) and left at room temperature for 2 h. The blood was centrifuged at 4° C. at 7000 rpm for 10 min, and serum was pipetted, quick-frozen in dry ice and then stored at −80° C. before analysis. The serum was tested for the biochemical indicators TCHO, TG, LDL-C and HDL-C using kits and a microplate reader.

[2] = system: Apoe KO mouse atherosclerosis model; assay: Atherosclerosis model: aortic plaque En-face staining and plaque area
Protocol: as §1, §2
At the end of the experiment, the mice were euthanized by CO2 inhalation, and their hearts and aortas (from the aortic arch to the iliac artery) were isolated. The isolated artery was dissected longitudinally from the aortic arch to the iliac artery, fixed in 4% paraformaldehyde for 30 min, synchronized with 60% isopropanol for 10 min, then stained in 60% oil red for 30 min, and then washed with 60% isopropanol 3 times for 5 min each time. Finally, the stained aorta was washed with deionized water and photographed. The proportion of red plaque areas was measured using Image Pro Plus 6.0 (Media Cybernetics, MD, US).

[3] = system: Apoe KO mouse atherosclerosis model; assay: Atherosclerosis model: plaques in the cardiac (left ventricular) outflow tract
Protocol: as §1, §2
Mouse heart samples were fixed overnight in 4% paraformaldehyde solution and dehydrated in sucrose solution. Then, the samples were embedded with OCT (Sakura, Japan) under a stereo microscope and made into 10 μm frozen sections. The sections were stained with oil red ORO and then subjected to routine pathological examinations. Images of the outflow tract were acquired under an optical microscope at 4× magnification, and high-quality morphological observations were carried out using an eyepiece with 20× magnification. The percentage of intimal lesions in the cardiac outflow tract was calculated. The detection criteria followed the criteria for histological classification of human atherosclerotic disease, which are described in detail below:
The area of plaques in the left ventricular outflow tract was measured using a microscope, and the proportion of plaques in the left ventricular outflow tract was calculated; this value reflects the degree of stenosis in the cardiac outflow tract vessel.

[4] = Apoe KO mice, high-fat diet, atorvastatin 5 mpk QD oral

## CC(C)c1c(C(=O)Nc2ccccc2)c(-c2ccccc2)c(-c2ccc(F)cc2)n1CC[C@@H](O)C[C@@H](O)CC(=O)O [ATV]
[1]; Time 1, individual mice
  blood lipids (CHO) in Apo E−/− mice: 1.195 and 1.061 and 1.217 and 1.075 and 1.359 and 0.7849 and 0.5037
  blood lipids (HDL-C) in Apo E−/− mice: 0.4304 and 1.163 and 1.735 and 1.563 and 1.618 and 1.29 and 1.027
  blood lipids (LDL-C) in Apo E−/− mice: 1.101 and 1.061 and −0.07821 and 1.123 and 1.296 and 0.676 and 1.006
  blood lipids (TG) in Apo E−/− mice: 1.038 and 0.845 and 1.136 and 1.282 and 0.875 and 1.001 and 0.9307
[1]; Time 2, individual mice
  blood lipids (CHO) in Apo E−/− mice: 0.8468 and 0.9207 and 0.799 and 1.023 and 0.6043 and 0.8602 and 0.8475 and 0.8932
  blood lipids (HDL-C) in Apo E−/− mice: 1.178 and 0.769 and 0.5861 and 0.7669 and 0.6443 and 0.8023 and 0.8584 and 0.9664
  blood lipids (LDL-C) in Apo E−/− mice: 0.7237 and 0.8132 and 0.6614 and 1.342 and 0.603 and 0.5797 and 1.152 and 1.234
  blood lipids (TG) in Apo E−/− mice: 1.204 and 0.9447 and 1.095 and 1.111 and 0.7477 and 0.9934 and 0.7632 and 0.9336
[1]; Time 3, individual mice
  blood lipids (CHO) in Apo E−/− mice: 1.237 and 0.9298 and 1.587 and 1.424 and 1.118 and 0.7614 and 1.278 and 1.057
  blood lipids (HDL-C) in Apo E−/− mice: 0.713 (2×) and 0.8416 and 0.6487 and 1.292 and 1.1791 and 0.8576 (2×)
  blood lipids (LDL-C) in Apo E−/− mice: 0.9753 and 0.8023 and 0.8722 and 0.6477 and 0.7655 and 0.4564 and 1.218 and 1.421
  blood lipids (TG) in Apo E−/− mice: 1.341 and 0.9611 and 1.459 and 1.456 and 0.9501 and 1.063 and 1.577 and 0.6584
[1]; Time 4, individual mice
  blood lipids (CHO) in Apo E−/− mice: 1.183 and 1.199 and 1.344 and 1.673 and 1 and 1.22 and 0.7566 and 1.398
  blood lipids (HDL-C) in Apo E−/− mice: 0.9522 and 1.062 and 0.6434 and 4.724 and 0.6654 and 1.371 and 0.6875 and 0.8419
  blood lipids (LDL-C) in Apo E−/− mice: 1.05 and 1.675 and 0.9086 and 0.8511 and 1.319 and 0.3604 and 0.6019 and 1.123
  blood lipids (TG) in Apo E−/− mice: 1.516 and 1.429 and 2.38 and 2.165 and 1.213 and 1.476 and 0.5106 and 0.9949
[2]; HFD + ATV-5 mpk, PO QD 8 W, individual mice, 5 mg/kg, in % (unit assumed)
  atherosclerotic plaques in mice (proportion of arterial plaque area): 10.98 and 13.52 and 8.609 and 9.551 and 9.286 and 13.92 and 13.86
[3]; HFD + ATV-5 mpk, PO QD 8 W, individual mice, 5 mg/kg, in %
  plaques in the cardiac outflow tracts of mice (proportion of plaques in the left ventricular outflow tract): 1.923 and 8.46 and 9.071 and 7.844 and 1.618 and 3.771 and 2.279 and 8.38

## CC(C)c1c(C(=O)Nc2ccccc2)c(-c2ccccc2)c(-c2ccc(F)cc2)n1CC[C@@H](O)C[C@@H](O)CC(=O)O [atorvastatin, reference compound]
[1]; Apoe KO mice, high-fat diet, atorvastatin 5 mpk QD oral, 8 weeks
  Effect on dyslipidemia: dyslipidemia was relieved
[2]; [4]
  Proportion of the arterial plaque area: significantly reduced
[3]; [4]
  Left ventricular outflow tract plaques: significantly fewer plaques than the HFD group
